According to US11161846B2, “Substituted pyrazolo[4,3-b]pyridines and their use as GluN2B receptor modulators” (JANSSEN PHARMACEUTICA NV, priority 2019, dated 2021):

Molecular target: T1, human GluN1/GluN2B NMDA receptors (Homo sapiens, UniProt Q05586+Q13224)
T1 construct: expressed in transfected cells
Experiment: Calcium flux (FLIPR) assay on cloned human NR1/GluN2B ion channels expressed in mammalian cells, standard assay
Assay type: cell-based
Details: glutamate ~EC40 and 10 μM glycine, stable cell line with Tet-On induced expression
Protocol: Effects of Test Articles on Cloned Human NR1/GluN2B Ion Channels Expressed in Mammalian Cells
NMDA receptors are ion channels that are highly permeable to Ca^2+ ions, rendering it possible to monitor NMDA receptor function using cell-based calcium flux assay. In this assay, co-agonists glutamate and glycine are added to cells heterologously expressing human GluN1/GluN2B NMDA receptors to initiate cellular Ca^2+ influx. The time course of the changes in intracellular calcium is measured using a fluorescent dye and a FLIPR (Fluorometric Imaging Plate Reader) device.
Twenty four hours before measurements, the expression of the NMDA receptors in the stable cell line is induced with Tet-On inducible system in the presence of a non-selective NMDA receptor blocker. On the day of the experiment, cell culture media is carefully washed and the cells are loaded with Calcium 5 Dye Kit (Molecular Devices) in dye loading buffer containing 137 mM NaCl, 4 mM KCl, 2 mM CaCl2, 0.5 mM MgCl2 (standard assay) or 1.5 mM MgCl2 (HTS assay), 10 mM HEPES and 5 mM D-glucose; pH 7.4. After 1 h incubation at the room temperature, the dye is washed away with the assay buffer (137 mM NaCl (standard assay) or 150 mM (HTS assay), 4 mM KCl (standard assay) or 3 mM (HTS assay), 2 mM CaC2, 0.01 mM EDTA, 10 mM HEPES and 5 mM D-glucose; pH 7.4) In the FLIPR TETRA reader, various concentrations of the test compounds are added to the cells for 5 min while fluorescence is monitored to detect potential agonist activity. Next, co-agonists, glutamate and glycine are added for another 5 minutes. The concentration of glutamate corresponding to ˜EC40 (standard assay) or EC40 (HTS assay) is used to maximize the assay's signal window and ability to detect NMDA receptor antagonists and negative allosteric modulators. A saturating concentration (10 μM) of glycine is also present in the assay. A non-selective NMDA receptor antagonist, (+)MK-801 is used as a positive control for antagonist activity. The fluorescent signal in the presence of test compounds is quantified and normalized to the signal defined by the appropriate control wells.

T1 sequence (Q13224 27-1484, other chains not shown): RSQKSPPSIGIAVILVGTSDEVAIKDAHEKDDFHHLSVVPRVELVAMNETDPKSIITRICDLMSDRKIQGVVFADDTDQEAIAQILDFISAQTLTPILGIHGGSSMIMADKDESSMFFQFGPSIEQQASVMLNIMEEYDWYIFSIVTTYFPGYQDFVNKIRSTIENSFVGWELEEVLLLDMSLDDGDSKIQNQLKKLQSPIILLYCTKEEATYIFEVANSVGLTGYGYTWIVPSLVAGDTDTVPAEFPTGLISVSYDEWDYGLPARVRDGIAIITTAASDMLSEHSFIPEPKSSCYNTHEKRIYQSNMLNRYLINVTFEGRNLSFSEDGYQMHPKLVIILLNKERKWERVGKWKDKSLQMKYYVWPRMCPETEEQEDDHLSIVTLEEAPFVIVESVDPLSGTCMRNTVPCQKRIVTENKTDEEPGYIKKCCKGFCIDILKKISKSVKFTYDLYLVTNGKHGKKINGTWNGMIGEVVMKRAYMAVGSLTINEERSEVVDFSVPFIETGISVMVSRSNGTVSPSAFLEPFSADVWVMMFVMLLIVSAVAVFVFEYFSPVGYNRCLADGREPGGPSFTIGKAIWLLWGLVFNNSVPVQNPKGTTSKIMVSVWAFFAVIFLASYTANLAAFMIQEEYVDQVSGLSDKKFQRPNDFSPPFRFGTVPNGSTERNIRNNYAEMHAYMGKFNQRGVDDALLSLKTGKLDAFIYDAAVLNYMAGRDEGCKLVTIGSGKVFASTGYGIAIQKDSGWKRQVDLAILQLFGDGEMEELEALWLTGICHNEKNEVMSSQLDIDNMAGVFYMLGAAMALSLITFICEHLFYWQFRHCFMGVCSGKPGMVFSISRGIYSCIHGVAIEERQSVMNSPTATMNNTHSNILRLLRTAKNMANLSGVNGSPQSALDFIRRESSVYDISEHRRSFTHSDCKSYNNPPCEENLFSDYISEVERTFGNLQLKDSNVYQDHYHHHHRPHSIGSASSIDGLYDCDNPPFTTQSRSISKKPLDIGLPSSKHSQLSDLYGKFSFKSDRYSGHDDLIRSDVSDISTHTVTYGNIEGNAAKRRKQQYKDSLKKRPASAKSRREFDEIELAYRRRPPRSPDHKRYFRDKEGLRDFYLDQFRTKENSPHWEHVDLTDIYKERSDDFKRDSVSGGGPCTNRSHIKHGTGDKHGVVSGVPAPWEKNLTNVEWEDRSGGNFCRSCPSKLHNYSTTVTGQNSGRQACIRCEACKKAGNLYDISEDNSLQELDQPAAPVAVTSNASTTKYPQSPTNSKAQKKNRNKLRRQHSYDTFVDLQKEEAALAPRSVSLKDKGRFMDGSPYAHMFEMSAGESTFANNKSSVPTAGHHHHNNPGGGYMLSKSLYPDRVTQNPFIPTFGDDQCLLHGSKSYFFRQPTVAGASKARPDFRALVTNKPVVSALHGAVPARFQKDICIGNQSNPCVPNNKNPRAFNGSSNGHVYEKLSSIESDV

Structure (SMILES) | IC50 [nM]
CCC(=O)Cn1ncc2ncc(-c3ccc(F)c(C(F)(F)F)c3)cc21 [Example 39, 1-[6-[4-Fluoro-3-(trifluoromethyl)phenyl]pyrazolo[4,3-b]pyridin-1-yl]butan-2-one] | 75
Cc1cc(-c2cnc3cnn(CC(O)C(C)C)c3c2)ccc1F (racemic) [Example 8, (RS)-1-[6-(4-Fluoro-3-methyl-phenyl)pyrazolo[4,3-b]pyridin-1-yl]-3-methyl-butan-2-ol] | 222
O=C(Cn1ncc2ncc(-c3cccc(F)c3F)cc21)C1CC1 [Example 64, 1-Cyclopropyl-2-[6-(2,3-difluorophenyl)pyrazolo[4,3-b]pyridin-1-yl]ethanone] | 37
Cc1cccc(-c2cnc3cnn(CC(=O)C4CC4)c3c2)c1F [Example 71, 1-Cyclopropyl-2-[6-(2-fluoro-3-methyl-phenyl)pyrazolo[4,3-b]pyridin-1-yl]ethanone] | 7
CC(C)C(=O)Cn1ncc2ncc(-c3cccc(C(F)F)c3)cc21 [Example 47, 1-[6-[3-(Difluoromethyl)phenyl]pyrazolo[4,3-b]pyridin-1-yl]-3-methyl-butan-2-one] | 23
CC[S+]([O-])Cn1ncc2ncc(-c3ccc(F)c(C(F)F)c3)cc21 (racemic) [Example 83, (RS)-6-(3-(Difluoromethyl)-4-fluorophenyl)-1-((ethylsulfinyl)methyl)-1H-pyrazolo[4,3-b]pyridine] | 34
CC(C)C(=O)Cn1ncc2ncc(-c3ccc(F)c(F)c3)cc21 [Example 49, 1-[6-(3,4-Difluorophenyl)pyrazolo[4,3-b]pyridin-1-yl]-3-methyl-butan-2-one] | 25
CCC(=O)Cn1ncc2ncc(-c3cc(F)cc(F)c3)cc21 [Example 1, 1-[6-(3,5-Difluorophenyl)pyrazolo[4,3-b]pyridin-1-yl]butan-2-one] | 19
CC(C)C(=O)Cn1ncc2ncc(-c3ccc(F)cc3)cc21 [Example 45, 1-[6-(4-Fluorophenyl)pyrazolo[4,3-b]pyridin-1-yl]-3-methyl-butan-2-one] | 36
O=C(Cn1ncc2ncc(-c3cccc(F)c3)cc21)C1CC1 [Example 57, 1-Cyclopropyl-2-[6-(3-fluorophenyl)pyrazolo[4,3-b]pyridin-1-yl]ethanone] | 26
CCC(=O)Cn1ncc2ncc(-c3ccc(Cl)c(OC(F)F)c3)cc21 [Example 41, 1-[6-[4-Chloro-3-(difluoromethoxy)phenyl]pyrazolo[4,3-b]pyridin-1-yl]butan-2-one] | 21
O=C(Cn1ncc2ncc(-c3cccc(C(F)(F)F)c3F)cc21)C1CC1 [Example 73, 1-Cyclopropyl-2-[6-[2-fluoro-3-(trifluoromethyl)phenyl]pyrazolo[4,3-b]pyridin-1-yl]ethanone] | 43
O=C1NCC(Cn2ncc3ncc(-c4ccc(F)c(C(F)F)c4)cc32)O1 (racemic) [Example 20, (RS)-5-[[6-[3-(Difluoromethyl)-4-fluoro-phenyl]pyrazolo[4,3-b]pyridin-1-yl]methyl]oxazolidin-2-one] | 197
CCC(F)(F)Cn1ncc2ncc(-c3ccc(F)c(C(F)F)c3)cc21 [Example 98, 1-(2,2-Difluorobutyl)-6-[3-(difluoromethyl)-4-fluoro-phenyl]pyrazolo[4,3-b]pyridine] | 89
O=C(Cn1ncc2ncc(-c3ccc(F)c(C(F)(F)F)c3)cc21)C1CC1 [Example 74, 1-Cyclopropyl-2-[6-[4-fluoro-3-(trifluoromethyl)phenyl]pyrazolo[4,3-b]pyridin-1-yl]ethanone] | 36
CCC(=O)Cn1ncc2ncc(-c3ccc(Cl)s3)cc21 [Example 27, 1-[6-(5-Chloro-2-thienyl)pyrazolo[4,3-b]pyridin-1-yl]butan-2-one] | 13
CC[S+]([O-])Cn1ncc2ncc(-c3cccc(C(F)(F)F)c3)cc21 (racemic) [Example 81, (RS)-1-(Ethylsulfinylmethyl)-6-[3-(trifluoromethyl)phenyl]pyrazolo[4,3-b]pyridine] | 128
O=C(Cn1ncc2ncc(-c3ccc(F)c(C(F)F)c3)cc21)c1cccnc1 [Example 16, 2-(6-(3-(Difluoromethyl)-4-fluorophenyl)-1H-pyrazolo[4,3-b]pyridin-1-yl)-1-(pyridin-3-yl)ethan-1-one] | 90
CC(C)C(=O)Cn1ncc2ncc(-c3ccccc3)cc21 [Example 44, 3-Methyl-1-(6-phenylpyrazolo[4,3-b]pyridin-1-yl)butan-2-one] | 89
FC(F)(F)c1cccc(-c2cnc3cnn(CC4CCO4)c3c2)c1 (racemic) [Example 17, (RS)-1-(Oxetan-2-ylmethyl)-6-[3-(trifluoromethyl)phenyl]pyrazolo[4,3-b]pyridine] | 85
CCC(=O)Cn1ncc2ncc(-c3ccc(F)c(F)c3)cc21 [Example 34, 1-[6-(3,4-Difluorophenyl)pyrazolo[4,3-b]pyridin-1-yl]butan-2-one] | 17
O=C(Cn1ncc2ncc(-c3ccc(Cl)s3)cc21)C1CC1 [Example 55, 2-[6-(5-Chloro-2-thienyl)pyrazolo[4,3-b]pyridin-1-yl]-1-cyclopropyl-ethanone] | 8
CC(C)C(O)Cn1ncc2ncc(-c3ccccc3)cc21 (racemic) [Example 96, (RS)-3-Methyl-1-(6-phenylpyrazolo[4,3-b]pyridin-1-yl)butan-2-ol] | 1530
O=C(Cn1ncc2ncc(-c3cc(F)cc(F)c3)cc21)C1CC1 [Example 66, 1-Cyclopropyl-2-[6-(3,5-difluorophenyl)pyrazolo[4,3-b]pyridin-1-yl]ethanone] | 19

Further lines, results first:

IC50 [nM] | Structure (SMILES)
1630 | O=C1OC(Cn2ncc3ncc(-c4ccc(F)c(C(F)F)c4)cc32)CN1C1CC1 (racemic) [Example 134, (RS)-3-Cyclopropyl-5-[[6-[3-(difluoromethyl)-4-fluoro-phenyl]pyrazolo[4,3-b]pyridin-1-yl]methyl]oxazolidin-2-one]
204 | CCN1C[C@H](Cn2ncc3ncc(-c4ccc(F)c(C(F)F)c4)cc32)OC1=O [Example 133, (R)-5-[[6-[3-(Difluoromethyl)-4-fluoro-phenyl]pyrazolo[4,3-b]pyridin-1-yl]methyl]-3-ethyl-oxazolidin-2-one]
109 | Cc1cc(-c2cnc3cnn(C[C@H](O)C4CC4)c3c2)ccc1F [Example 102, (R)-1-Cyclopropyl-2-[6-(4-fluoro-3-methyl-phenyl)pyrazolo[4,3-b]pyridin-1-yl]ethanol]
5250 | CON=C(Cn1ncc2ncc(-c3cccc(C(F)(F)F)c3)cc21)C(C)C (mixture of isomers) [Example 105, (E/Z)-N-Methoxy-3-methyl-1-[6-[3-(trifluoromethyl)phenyl]pyrazolo[4,3-b]pyridin-1-yl]butan-2-imine]
409 | O=C(Cn1ncc2ncc(-c3ccc(F)c(C(F)F)c3)cc21)c1ncc(F)cc1F [Example 141, 2-(6-(3-(Difluoromethyl)-4-fluorophenyl)-1H-pyrazolo[4,3-b]pyridin-1-yl)-1-(3,5-difluoropyridin-2-yl)ethan-1-one]
> 3000 | CN1C(=O)CCC1Cn1ncc2ncc(-c3ccc(F)c(OC(F)F)c3)cc21 (racemic) [Example 114, (RS)-5-((6-(3-(Difluoromethoxy)-4-fluorophenyl)-1H-pyrazolo[4,3-b]pyridin-1-yl)methyl)-1-methylpyrrolidin-2-one]
191 | O=C(Cn1ncc2ncc(-c3ccc(F)c(C(F)F)c3)cc21)c1ncccc1F [Example 140, 2-(6-(3-(Difluoromethyl)-4-fluorophenyl)-1H-pyrazolo[4,3-b]pyridin-1-yl)-1-(3-fluoropyridin-2-yl)ethan-1-one]
1490 | ON=C(Cn1ncc2ncc(-c3cccc(C(F)(F)F)c3)cc21)C1CC1 (mixture of isomers) [Example 106, (E/Z)-1-Cyclopropyl-2-[6-[3-(trifluoromethyl)phenyl]pyrazolo[4,3-b]pyridin-1-yl]ethanone oxime]
89 | CN1CC(Cn2ncc3ncc(-c4ccc(F)c(C(F)F)c4)cc32)CC1=O (racemic) [Example 120, (RS)-4-[[6-[3-(Difluoromethyl)-4-fluoro-phenyl]pyrazolo[4,3-b]pyridin-1-yl]methyl]-1-methyl-pyrrolidin-2-one]
93 | FC(F)(F)c1cccc(-c2cnc3cnn(CC4CCCO4)c3c2)c1 (racemic) [Example 111, (RS)-1-(Tetrahydrofuran-2-ylmethyl)-6-[3-(trifluoromethyl)phenyl]pyrazolo[4,3-b]pyridine]
685 | CN1C[C@@H](Cn2ncc3ncc(-c4ccc(F)c(C(F)F)c4)cc32)CC1=O [Example 121, (S)-4-[[6-[3-(Difluoromethyl)-4-fluoro-phenyl]pyrazolo[4,3-b]pyridin-1-yl]methyl]-1-methyl-pyrrolidin-2-one]
